Type in all cases: in vivo
For assay [1], the system named is Spodoptera littoralis, Heliothis virescens, Plutella xylostella, Diabrotica balteata, Thrips tabaci, Tetranychus urticae. Nature of the assay: Pesticidal tests, same protocols (all six pests taken together). Particulars: same protocols as b207 (200 ppm), under the test conditions. The source says:
(§1) Cotton leaf discs were placed on agar in a 24-well microtiter plate and sprayed with test solutions at an application rate of 200 ppm. After drying, the leaf discs were infested with 5 to L1 larvae. The samples were checked for mortality, feeding behavior, and growth regulation 3 days after treatment (DAT). The following compounds gave at least 80% control of Spodoptera littoralis: A1, A2, A3, A4, A6, A9, A10, A11, A12, A13, A14, A15, A16, A19, A20, A22, A23, A25, A26, A27, B1, B2, B3, B5, B6, B7, B8, B9, B11, B12, B13, B15, B16, B18, B19, B20, B21, B22, B24, B26, B27, B28, C1, C2, C3, C4, C5, C6, C7, C8, C9, C10, C12, C13, C16, C19, C20, C21, C22, C23, D1, D2, D3, D4, D5, D6, D7, D8, D9, D10, D11, D12, D13, D14, D15, D16, D17, D18, D19, D20, D21, D22, D23, D24. Heliothis virescens (Tobacco Budworm): Eggs (0-24 h old) were placed in 24-well microtiter plate on artificial diet and treated with test solutions at an application rate of 200 ppm (concentration in well 18 ppm) by pipetting. After an incubation period of 4 days, samples were checked for egg mortality, larval mortality, and growth regulation. The following compounds gave at least 80% control of Heliothis virescens: A1, A2, A3, A4, A13, A15, A17, A19, A20, A22, A23, A25, A26, A28, B1, B2, B3, B5, B6, B7, B9, B11, B13, B15, B18, B19, B20, B21, B25, B26, B27, B28, C1, C2, C3, C4, C5, C6, C7, C8, C9, C10, C12, C14, C16, C17, C19, C20, C21, C22, D1, D2, D3, D4, D5, D6, D7, D8, D9, D10, D11, D12, D13, D14, D15, D16, D17, D18, D19, D20, D21, D22, D23, E1, E2, E3, E4, E5. Plutella xylostella (Diamond Back Moth): 24-well microtiter plate (MTP) with artificial diet was treated with test solutions at an application rate of 200 ppm (concentration in well 18 ppm) by pipetting. After drying, the MTP's were infested with L2 larvae (7-12 per well). After an incubation period of 6 days, samples were checked for larval mortality and growth regulation. The following compounds gave at least 80% control of Plutella xylostella: A1, A3, A4, A10, All, A15, A19, A23, A25, B1, B2, B3, B5, B6, B7, B8, B9, B11, B13, B15, B18, B19, B20, B21, B26, B27, B28, C1, C2, C3, C4, C6, C7, C8, C9, C12, C16, C19, C20, C22, D1, D2, D3, D4, D5, D6, D7, D8, D9, D10, D12, D13, D14, D15, D16, D17, D18, D19, D20, D21, D22, D23, E1, E3, E5. Diabrotica balteata (Corn Root Worm): A 24-well microtiter plate (MTP) with artificial diet was treated with test solutions at an application rate of 200 ppm (concentration in well 18 ppm) by pipetting. After drying, the MTP's were infested with L2 larvae (6-10 per well). After an incubation period of 5 days, samples were checked for larval mortality and growth regulation. The following compounds gave at least 80% control of Diabrotica balteata: A2, A3, A4, A9, A11, A12, A13, A14, A15, A17, A19, A21, A22, A23, A24, A25, A26, B1, B2, B3, B6, B7, B8, B11, B13, B14, B15, B18, B19, B20, B21, B22, B26, B28, C1, C2, C3, C4, C5, C6, C7, C8, C9, C10, C12, C14, C15, C16, C19, C20, C21, C22, C23, C26, D1, D2, D4, D5, D6, D7, D8, D9, D10, D12, D14, D15, D16, D17, D18, D19, D20, D21, D22, D23, E2, E3, E5. Thrips tabaci (Onion Thrips): Sunflower leaf discs were placed on agar in a 24-well microtiter plate and sprayed with test solutions at an application rate of 200 ppm. After drying, the leaf discs were infested with an […] population of mixed ages. After an incubation period of 7 days, samples were checked for mortality. The following compounds gave at least 80% control of Thrips tabaci: B1, B7, B11, B15, B18, B19, B28, D1, D2, D3, D4, D5, D6, D7, D8, D9, D10, D12, D16, D18, D19, D20, D21, D23. Tetranychus urticae (Two-Spotted Spider Mite): Bean leaf discs on agar in 24-well microtiter plates were sprayed with test solutions at an application rate of 200 ppm. After drying, the leaf discs are infested with mite populations of mixed ages. 8 days later, discs are checked for egg mortality, larval mortality, and adult mortality. […]

For assay [2], the system named is Spodoptera littoralis (Egyptian Cotton Leafworm). Put plainly: Spodoptera littoralis cotton leaf disc spray test. The settings on record: foliar, 72 h, 200 ppm spray on cotton leaf discs, L1 larvae, mortality, feeding behavior, growth regulation 3 DAT.
Source text: as §1

Assay [3] has as its system Heliothis virescens (Tobacco Budworm). Put plainly: Heliothis virescens egg test on artificial diet. Particulars: 96 h, 200 ppm (concentration in well 18 ppm), eggs 0-24 h old on artificial diet, egg mortality, larval mortality, growth regulation after 4 days.
Source text: as §1

For assay [4], the system named is Plutella xylostella (Diamond Back Moth). Nature of the assay: Plutella xylostella larvae test on artificial diet. The settings on record: 144 h, 200 ppm (concentration in well 18 ppm), L2 larvae, larval mortality and growth regulation after 6 days.
Source text: as §1

Assay [5] has as its system Diabrotica balteata (Corn Root Worm). Nature of the assay: Diabrotica balteata larvae test on artificial diet. Particulars: 120 h, 200 ppm (concentration in well 18 ppm), L2 larvae, larval mortality and growth regulation after 5 days.
Source text: as §1

Bounds are passed on as bounds.

As to `O=C(Nc1cccc(C2=NOC(c3cc(Cl)cc(Cl)c3)(C(F)(F)F)C2)c1)c1ccc(F)c(C(F)(F)F)c1` (racemic) [A18], the “effect on mortality, feeding behavior, or growth regulation” value in assay [1] was “little or no effect”.
Turning to `CCCCC(=O)Nc1cccc(C2=NOC(c3cc(Cl)cc(Cl)c3)(C(F)(F)F)C2)c1` (centres unmarked) [A6, pentanoic acid {3-[5-(3,5-dichloro-phenyl)-5-trifluoromethyl-4,5-dihydro-isoxazol-3-yl]-phenyl}-amide], in assay [2], the pest or weed control (commonly how far the test organism was held down) at 200 ppm was ≥ 80%.
With `Cc1ccccc1C(=O)Nc1cccc(C2=NOC(c3cc(Cl)cc(Cl)c3)(C(F)(F)F)C2)c1F` (centres unmarked) [B2], the pest or weed control at 200 ppm in assay [3], in assay [2], in assay [4] and in assay [5] was ≥ 80% in each case.
For the compound `O=C(Nc1cccc(C2=NOC(c3cc(Cl)cc(Cl)c3)(C(F)(F)F)C2)c1F)c1ccccc1Cl` (centres unmarked) [B3], the pest or weed control at 200 ppm in assay [3], in assay [2], in assay [4] and in assay [5] was ≥ 80% in each case.
On to `Cc1ccc(C(=O)Nc2cccc(C3=NOC(c4cc(Cl)cc(Cl)c4)(C(F)(F)F)C3)c2F)cc1` (centres unmarked) [B6], for which the pest or weed control at 200 ppm in assay [3], in assay [2], in assay [4] and in assay [5] was ≥ 80% each time.
For the compound `O=C(Nc1cccc(C2=NOC(c3cc(Cl)cc(Cl)c3)(C(F)(F)F)C2)c1F)c1ccccc1` (centres unmarked) [B16], the pest or weed control at 200 ppm in assay [2] was ≥ 80%.
On to `O=C(Nc1cccc(C2=NOC(c3cc(Cl)cc(Cl)c3)(C(F)(F)F)C2)c1F)c1cccc(F)c1F` (centres unmarked) [B21], for which the pest or weed control at 200 ppm in assay [3], in assay [2], in assay [4] and in assay [5] was ≥ 80% throughout.
On to `O=C(Nc1cccc(C2=NOC(c3cc(Cl)cc(Cl)c3)(C(F)(F)F)C2)c1F)c1ccc(F)cc1F` (centres unmarked) [B22], for which the pest or weed control at 200 ppm in assay [2] and in assay [5] was ≥ 80% in each case.
Turning to `O=C(Nc1cccc(C2=NOC(c3cc(Cl)cc(Cl)c3)(C(F)(F)F)C2)c1F)c1ccccn1` (centres unmarked) [B25], the pest or weed control at 200 ppm in assay [3] is ≥ 80%.
Take `O=C(Nc1cccc(C2=NOC(c3cc(Cl)cc(Cl)c3)(C(F)(F)F)C2)c1F)c1cccnc1` (centres unmarked) [B26]: the pest or weed control at 200 ppm in assay [3], in assay [2], in assay [4] and in assay [5] was ≥ 80% each time.
`CSc1ccccc1C(=O)Nc1cccc(C2=NOC(c3cc(Cl)cc(Cl)c3)(C(F)(F)F)C2)c1F` (centres unmarked) [B27]: the pest or weed control at 200 ppm in assay [3], in assay [2] and in assay [4] was ≥ 80% each time.
Consider `N#Cc1ccc(C(=O)Nc2cc(C3=NOC(c4cc(Cl)cc(Cl)c4)(C(F)(F)F)C3)ccc2F)cc1` (centres unmarked) [C1], for which the pest or weed control at 200 ppm in assay [3], in assay [2], in assay [4] and in assay [5] was ≥ 80% each time.
On to `O=C(Nc1cc(C2=NOC(c3cc(Cl)cc(Cl)c3)(C(F)(F)F)C2)ccc1F)c1ccccc1F` (centres unmarked) [C5], for which the pest or weed control at 200 ppm in assay [3], in assay [2] and in assay [5] was ≥ 80% throughout.
As to `Cc1ccccc1C(=O)Nc1cc(C2=NOC(c3cc(Cl)cc(Cl)c3)(C(F)(F)F)C2)ccc1F` (centres unmarked) [C6], the pest or weed control at 200 ppm in assay [3], in assay [2], in assay [4] and in assay [5] was ≥ 80% each time.
Regarding `O=C(Nc1cc(C2=NOC(c3cc(Cl)cc(Cl)c3)(C(F)(F)F)C2)ccc1F)c1ccccc1Cl` (centres unmarked) [C7], the pest or weed control at 200 ppm in assay [3], in assay [2], in assay [4] and in assay [5] was ≥ 80% in each case.
For the compound `O=C(Nc1cc(C2=NOC(c3cc(Cl)cc(Cl)c3)(C(F)(F)F)C2)ccc1F)c1ccc([N+](=O)[O-])cc1` (centres unmarked) [C8], the pest or weed control at 200 ppm in assay [3], in assay [2], in assay [4] and in assay [5] was ≥ 80% each time.
Regarding `O=C(Nc1cc(C2=NOC(c3cc(Cl)cc(Cl)c3)(C(F)(F)F)C2)ccc1F)c1ccco1` (centres unmarked) [C13], the pest or weed control at 200 ppm in assay [2] is ≥ 80%.
For the compound `O=C(Nc1cc(C2=NOC(c3cc(Cl)cc(Cl)c3)(C(F)(F)F)C2)ccc1F)c1ccccc1` (centres unmarked) [C19], the pest or weed control at 200 ppm in assay [3], in assay [2], in assay [4] and in assay [5] was ≥ 80% each time.
On to `O=C(Nc1cc(C2=NOC(c3cc(Cl)cc(Cl)c3)(C(F)(F)F)C2)ccc1F)c1ccc(F)cc1` (centres unmarked) [C20], for which the pest or weed control at 200 ppm in assay [3], in assay [2], in assay [4] and in assay [5] was ≥ 80% each time.
In the case of `O=C(Nc1cc(C2=NOC(c3cc(Cl)cc(Cl)c3)(C(F)(F)F)C2)ccc1F)c1cccc(F)c1F` (centres unmarked) [C23], the pest or weed control at 200 ppm in assay [2] and in assay [5] was ≥ 80% in each case.
For the compound `N#Cc1ccc(C2=NOC(c3cc(Cl)cc(Cl)c3)(C(F)(F)F)C2)cc1NC(=O)c1ccco1` (centres unmarked) [D13], the pest or weed control at 200 ppm in assay [3], in assay [2] and in assay [4] was ≥ 80% throughout.
As to `N#Cc1ccc(C2=NOC(c3cc(Cl)cc(Cl)c3)(C(F)(F)F)C2)cc1NC(=O)c1cccc(F)c1F` (centres unmarked) [D22], the pest or weed control at 200 ppm in assay [3], in assay [2], in assay [4] and in assay [5] was ≥ 80% throughout.
Take `Cc1cc(NC(=O)c2ccc(C#N)cc2)cc(C2=NOC(c3cc(Cl)cc(Cl)c3)(C(F)(F)F)C2)c1` (centres unmarked) [E1]: the pest or weed control at 200 ppm in assay [3] and in assay [4] was ≥ 80% each time.

The values are drawn from patent publication US8410145B2, “Insecticidal compounds” (Syngenta Crop Protection LLC, priority 2007, dated 2013).
